Measured values reported in publication PMC11124387, “A Reliable Multifaceted Solution against Foodborne Viral Infections: The Case of RiLK1 Decapeptide” (Molecules, 2024).
Where two headings read alike, the source gives them in different places.

What was measured:
[1] = test system: Hepatitis A virus (HAV) strain HM-175; experiment: Virucidal effect of peptides on HAV (residual infectivity by TCID50 titration on Frp3 cells); assay type: cell-based; settings: for Viral Titre after Treatment: titration on Frp3 cells; for Viral Titre after Treatment / LRV (log reduction value): mean ± SD, triplicate
Text: (§1) Murine norovirus strain 1 (MNV-1) was used as a surrogate for human norovirus (NoV). The virus was replicated in RAW 264.7 cells (murine macrophage cell line) cultured in Dulbecco’s modified Eagle’s medium (DMEM) supplemented with 1% glutamine, 1% non-essential amino acids, and 2% fetal bovine serum (FBS). Hepatitis A virus (HAV) strain HM-175 was replicated in Frp3 cells (non-human primate cell line derived from fetal kidney) cultured in minimum essential medium (MEM) with Earle’s salts supplemented with 1% glutamine, 2% non-essential amino acids, and 2% FBS. Both viruses were incubated in 5% CO2 at 37 °C. All cell culture media were provided by EuroClone (Milan, Italy). The viral suspensions were prepared by freeze and thaw lysis (1 cycle for MNV-1 and 3 cycles for HAV) of infected monolayers, clarified using low-speed centrifugation (800× g) to remove residual cell debris, then divided in aliquots, and stored at −80 °C until use.
(§2) Solutions 40 µM and 80 µM of each peptide of the panel (RiLK1, RiLK3, RiLK30, 1018-K6, MTP1, and AVP2) were chosen for the virucidal tests. HAV and MNV-1 were assayed at a concentration of 4.7 ± 0.2 log TCID50/mL and 4.5 ± 0.2 log TCID50/mL, respectively. The suspensions containing the peptides and viruses were incubated for 1 h at room temperature (RT,20 ± 2 °C) and 4 °C. These temperatures were chosen to simulate the use of sanitizing solutions in food production/processing environments. Residual viral infectivity was evaluated by titration (TCID50/mL) on Frp3 cells for HAV and on RAW 264.7 cells for MNV-1. Untreated HAV and MNV-1 suspensions and 40 µM and 80 µM AMP solutions, incubated at the same conditions, were used as controls. Each treatment condition was assayed in triplicate. For titration, 100 µL of serial tenfold dilutions of each sample were assayed in 24-well tissue culture plates containing 24–48 h cell monolayers and incubated for 1 h in 5% CO2 at 37 °C. After that, the wells were washed twice with 200 µL of PBS, and 500 µL of DMEM/MEM, supplemented with 2% of FBS, were was added to each well; MNV-1 and HAV incubations were carried for up to 6 days and 14 days, respectively, in 5% CO2 at 37 °C with daily visual inspection to determine the cytopathic effect. The virucidal efficacy of AMPs was estimated by comparing the titers of treated and untreated viral suspensions.
(§3) For each treatment, the average and standard deviation of the triplicate analyses were calculated. The virucidal effects of AMPs was assessed by calculating the log reduction value (LRV), i.e., the difference between the infectious titer (log-transformed) of untreated versus treated samples. The statistical significance of differences between treated and untreated samples was determined through one-way analysis of variance (ANOVA) with Bonferroni post hoc comparisons, with a significance level of p < 0.05 (GraphPad Prism v9.5.0, software San Diego, CA, USA).

[2] = test system: Murine norovirus strain 1 (MNV-1); assay type: cell-based; settings: for Viral Titre after Treatment: titration on RAW 264.7 cells; for Viral Titre after Treatment / LRV (log reduction value): mean ± SD, triplicate
Text: as §1, §2, §3

Salmonella Napoli = experiment: Antibacterial assay, Salmonella Napoli; assay type: cell-based; settings: even at the highest concentration tested (80 µM), 6 h at 37 °C
Text: (§4) The monophasic variant of Salmonella Typhimurium, Salmonella Napoli, and Campylobacter jejuni were isolated by the Laboratory of Microbiological Food Control—Department of Food Microbiology of the Istituto Zooprofilattico Sperimentale del Mezzogiorno in Portici (Naples, Italy) in raw and processed foodstuffs of animal origin. Specifically, the monophasic variant of S. Typhimurium and S. Napoli were isolated from bivalve mollusks, while C. jejuni was isolated from poultry meat. Bacterial cells were cultured at 37 °C in the appropriate culture media (S. Typhimurium and S. Napoli in buffered peptone water (Thermo Fisher, Milan, Italy) and C. jejuni in Bolton Broth (Oxoid, Madrid, Spain)) until collection and then diluted in fresh broth to a final concentration of 1.5 × 10^3 colony forming units (CFUs)/mL. Thereafter, peptide stock solutions in DMSO were added to the bacterial suspension at the same concentrations used in the virucidal assays (40 and 80 µM) and incubated at 37 °C for 6 h. Samples containing only cell suspension and DMSO were used as controls. […]

Campylobacter jejuni = assay type: cell-based; settings: peptide 40 and 80 µM, 6 h at 37 °C
Text: as §4

[3] = pH 2; cited from earlier work
Method: In this context, to acquire important information on how the conformational properties of peptides might influence the structure–function relationships and their distinct membrane interaction profiles, the propensity of the new peptides, RiLK30 and AVP2, to adopt a defined secondary structure and to undergo conformational changes were examined by circular dichroism and fluorescence spectroscopy. These analyses were performed in the presence of a negatively charged SDS that is commonly used as a biomimetic membrane model to study the structural features of membranotropic molecules. In previous ...

[4] = HAV + peptide 40 µM, 1 h at RT (20 ± 2 °C)
[5] = HAV + peptide 80 µM, 1 h at RT (20 ± 2 °C)
[6] = MNV-1 + peptide 40 µM, 1 h at 4 °C
[7] = MNV-1 + peptide 40 µM, 1 h at RT (20 ± 2 °C)
[8] = MNV-1 + peptide 80 µM, 1 h at RT (20 ± 2 °C)

With “KVSGVLFGTGLWVAL-NH2 [MTP1, previously designed 15-residue antimicrobial peptide, C-terminally amidated]” the “Viral Titre after Treatment” value ([1]; HAV 4.7 ± 0.2 log TCID50/mL + peptide 80 µM, 1 h at 4 °C) was 3.8 ± 0.2 logTCID50/mL, the “Viral Titre after Treatment” value ([1]; HAV + peptide 40 µM, 1 h at 4 °C) was 3.6 ± 0.3 logTCID50/mL and the “LRV (log reduction value)” value ([1]; HAV + peptide 40 µM, 1 h at 4 °C, untreated minus treated titre) was 1.1 ± 0.2 logTCID50/mL. The “LRV (log reduction value)” value [1, 4] was 1.5 ± 0.4 logTCID50/mL, the “Viral Titre after Treatment” value [1, 4] was 3.2 ± 0.2 logTCID50/mL and the “LRV (log reduction value)” value ([1]; HAV + peptide 80 µM, 1 h at 4 °C, untreated minus treated titre) was 0.9 ± 0.4 logTCID50/mL. The “LRV (log reduction value)” value [1, 5] was 1.2 ± 0.3 logTCID50/mL, the “Viral Titre after Treatment” value [1, 5] was 3.5 ± 0.1 logTCID50/mL and the “decrease of HAV infectious titer” value ([1]; maximum reduction, corresponding to the highest LRV) was “up to 97.3%”. The “virucidal activity toward MNV-1 (in words)” value ([2]; 40 and 80 µM, 4 °C and RT) was “no significant effects”, the “Viral Titre after Treatment” value ([2]; MNV-1 4.5 ± 0.2 log TCID50/mL + peptide 80 µM, 1 h at 4 °C) was 4.5 ± 0.1 logTCID50/mL and the “LRV (log reduction value)” value [2, 6] was 0.1 ± 0.3 logTCID50/mL. For the same substance, the “Viral Titre after Treatment” value [2, 6] was 4.4 ± 0.1 logTCID50/mL, the “LRV (log reduction value)” value [2, 7] was 0 ± 0.4 logTCID50/mL and the “Viral Titre after Treatment” value [2, 7] was 4.5 ± 0.2 logTCID50/mL. For the same substance, the “LRV (log reduction value)” value ([2]; MNV-1 + peptide 80 µM, 1 h at 4 °C) was 0 ± 0.3 logTCID50/mL, the “LRV (log reduction value)” value [2, 8] was 0 ± 0.4 logTCID50/mL and the “Viral Titre after Treatment” value [2, 8] was 4.5 ± 0.2 logTCID50/mL. For the same substance, the “bactericidal activity (growth inhibition on selective plates)” value (Salmonella Napoli) was “no detectable killing effects”, the “inhibitory activity against Campylobacter jejuni (in words)” value (Campylobacter jejuni) was “did not display any inhibitory activity” and the structural stability [3] was “high structural stability”.
